Data: ChEMBL document CHEMBL1146320, “Investigating biological activity spectrum for novel quinoline analogues” (Bioorg Med Chem, 2007)
Activity calls are given as the source filed them. The rule behind the calls is not given here.

Key:
Chlorella vulgaris = experiment: Inhibition of Chlorella vulgaris Beij assessed as reduction of chlorophyll content; format: functional, organism-based
SK-N-MC = experiment: Antiproliferative activity against human SK-N-MC cells by MTT assay; format: functional, cell-based
[1] = Lipophilicity, log K of the compound; format: physicochemical; conditions: octanol/water
[2] = (§1) Inhibition of photosynthesis in spinach chloroplast; format: functional, Spinacia oleracea
Spinacia oleracea = experiment: as §1; format: functional

Structure (SMILES)	IC50 (Chlorella vulgaris) [µM]	IC50 (SK-N-MC) [µM]	log K [1]	IC50 [2] [µM]	Activity (Chlorella vulgaris)	Activity (Spinacia oleracea)
NC(=S)N/N=C/c1ncccc1N [TRIAPINE]		0.31				
Cc1ccc2c(C(=O)O)cccc2n1		> 6.25	0.3629	146		
Nc1cc(N)c2cccnc2c1O	114	> 6.25	0.0522	185		
Cc1ccc2c([N+](=O)[O-])cc([N+](=O)[O-])c(O)c2n1	95	> 6.25	0.7292	26		
O=C(O)c1ccc(C(=O)O)c2nc(/C=C/c3cccc(Br)c3)ccc12			1.2171			
Cc1nc2ccccc2c(=O)[nH]1		> 6.25	0.1515		inactive	inactive
CN(C)C(=O)Nc1ccc(Cl)c(Cl)c1 [DCMU]				1.9		
O=[N+]([O-])c1cc([N+](=O)[O-])c2cccnc2c1O		> 6.25	0.7154	82		
Cc1ccc2c(N)cc(N)c(O)c2n1			0.2707	142		

Further lines, with some results ahead:

IC50 (Chlorella vulgaris) [µM]	IC50 (SK-N-MC) [µM]	log K [1]	IC50 [2] [µM]	Structure (SMILES)	Activity (Chlorella vulgaris)	Activity (Spinacia oleracea)
96	> 6.25	1.3976	487	O=C(O)c1cccc2nc(/C=C/c3ccc(Cl)cc3)ccc12		
	> 6.25	1.2858		O=C(O)c1ccc2ccc(/C=C/c3cccc(Cl)c3)nc2c1		
17		1.0911		Oc1ccc(/N=C/c2ccc3cccc(O)c3n2)cc1		
	> 6.25	1.5802	135	Oc1cccc2ccc(/C=C/c3ccc(Br)cc3)nc12		
168		0.886		Oc1cccc(/N=C/c2ccc3cccc(O)c3n2)c1		
115	> 6.25	1.4787	215	O=C(O)c1ccc2nc(/C=C/c3ccccc3Cl)ccc2c1		
		1.1922		COc1ccccc1/C=C/c1ccc2cccc(C(=O)O)c2n1		
33	> 6.25	1.5395	146	Oc1cccc2ccc(/C=C/c3cccc(Cl)c3)nc12		
11	> 6.25	0.4308		Oc1ccccc1/N=C/c1ccc2cccc(O)c2n1		
	0.77	1.5558	448	Oc1cccc2ccc(/C=C/c3ccc(Cl)cc3)nc12		
